Tests used:
Experiment in all cases: relative viability (nuclei count vs DMSO), 5 days (fraction); higher = more cells survive
4EGI-1 + Luminespib = compound: O=C(O)C(Cc1ccccc1[N+](=O)[O-])=NNc1nc(-c2ccc(Cl)c(Cl)c2)cs1 (mixture of isomers) [4EGI-1] + CCNC(=O)c1noc(-c2cc(C(C)C)c(O)cc2O)c1-c1ccc(CN2CCOCC2)cc1 [Luminespib] (partner 0.01 µM)
Outline: (§1)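 Lung cancer cell lines were seeded in 1536-well plates and dosed by pin tool the next day, with either a single drug or a fixed anchor-drug dose combined with five library-drug doses (not always all listed) spaced in √10 steps. Five days later, one step fixed the cells and stained their nuclei (final 0.05% Triton X-100, 1% formaldehyde, 1 ug/ml Hoechst), and nuclei were counted on 4× images. Relative viability is the nuclei count in treated wells divided by the count in vehicle wells, and each value is the median of duplicate plates.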

XMD8-85 + Decitabine = compound: CN1CCN(CC1)C2=CC(=C(C=C2)NC3=NC=C4C(=N3)N(C5=CC=CC=C5C(=O)N4C)C)OC [XMD8-85] + Nc1ncn([C@H]2C[C@H](O)[C@@H](CO)O2)c(=O)n1 [Decitabine] (partner 2 µM)
Outline: as §1

XMD8-85 + Bortezomib = compound: CN1CCN(CC1)C2=CC(=C(C=C2)NC3=NC=C4C(=N3)N(C5=CC=CC=C5C(=O)N4C)C)OC [XMD8-85] + CC(C)C[C@H](NC(=O)[C@H](Cc1ccccc1)NC(=O)c1cnccn1)B(O)O [Bortezomib] (partner 0.002 µM)
Outline: as §1

4EGI-1 + Dasatinib = compound: O=C(O)C(Cc1ccccc1[N+](=O)[O-])=NNc1nc(-c2ccc(Cl)c(Cl)c2)cs1 (mixture of isomers) [4EGI-1] + Cc1nc(Nc2ncc(C(=O)Nc3c(C)cccc3Cl)s2)cc(N2CCN(CCO)CC2)n1 [Dasatinib] (partner 0.075 µM)
Outline: as §1

| Cell Line | relative viability (4EGI-1 + Luminespib; first compound 0.5 µM) | relative viability (4EGI-1 + Luminespib; first compound 1.581 µM) | relative viability (4EGI-1 + Luminespib; first compound 5 µM) | relative viability (4EGI-1 + Luminespib; first compound 15.81 µM) | relative viability (4EGI-1 + Luminespib; first compound 50 µM) | relative viability (XMD8-85 + Decitabine; first compound 0.08 µM) | relative viability (XMD8-85 + Decitabine; first compound 0.253 µM) | relative viability (XMD8-85 + Decitabine; first compound 0.8 µM) | relative viability (XMD8-85 + Decitabine; first compound 2.53 µM) | relative viability (XMD8-85 + Decitabine; first compound 8 µM) | relative viability (XMD8-85 + Bortezomib; first compound 0.08 µM) | relative viability (XMD8-85 + Bortezomib; first compound 0.253 µM) | relative viability (XMD8-85 + Bortezomib; first compound 0.8 µM) | relative viability (XMD8-85 + Bortezomib; first compound 2.53 µM) | relative viability (XMD8-85 + Bortezomib; first compound 8 µM) | relative viability (4EGI-1 + Dasatinib; first compound 0.5 µM) | relative viability (4EGI-1 + Dasatinib; first compound 1.581 µM) | relative viability (4EGI-1 + Dasatinib; first compound 5 µM) | relative viability (4EGI-1 + Dasatinib; first compound 15.81 µM) | relative viability (4EGI-1 + Dasatinib; first compound 50 µM) |
| --- | --- | --- | --- | --- | --- | --- | --- | --- | --- | --- | --- | --- | --- | --- | --- | --- | --- | --- | --- | --- |
| NCI-H727 | 0.506 | 0.381 | 0.273 | 0.449 | 0.429 | 0.867 | 1.04 | 0.84 | 0.894 | 0.643 | 0.64 | 0.727 | 1.34 | 1.3 | 0.452 | 0.323 | 0.436 | 0.344 | 0.272 | 0.23 |
| LCLC-103H | 0.984 | 0.898 | 0.989 | 0.82 | 0.618 | 0.789 | 0.763 | 0.713 | 0.688 | 0.605 | 1.07 | 1.23 | 1.03 | 1.05 | 1.01 | 0.531 | 0.503 | 0.503 | 0.523 | 0.236 |
| ABC-1 | 0.83 | 0.326 | 0.792 | 0.402 | 0.201 | 1.42 | 1.09 | 1.49 | 1.11 | 0.745 | 0.246 | 0.254 | 0.302 | 0.252 | 0.22 | 0.585 | 0.501 | 0.586 | 0.38 | 0.192 |
| NCI-H3122 | 0.082 | 0.129 | 0.0842 | 0.106 | 0.084 | 0.401 | 0.439 | 0.481 | 0.507 | 0.543 | 1.11 | 1.02 | 1.05 | 1.05 | 0.915 | 0.967 | 0.739 | 0.881 | 0.841 | 0.239 |
| NCI-H1648 | – | – | – | – | – | 0.478 | 0.447 | 0.635 | 0.638 | 0.561 | – | – | – | – | – | – | – | – | – | – |
| NCI-H1703 | – | – | – | – | – | – | – | – | – | – | 0.28 | 0.267 | 0.306 | 0.345 | 0.196 | – | – | – | – | – |
| HOP-62 | 0.974 | – | 0.868 | 0.89 | 0.31 | 0.235 | 0.199 | 0.186 | 0.228 | 0.236 | 0.646 | 0.698 | 0.863 | 0.719 | 0.681 | 0.796 | 0.587 | 0.668 | 0.568 | 0.473 |
| NCI-H2405 | 0.7 | 0.486 | 0.836 | 0.672 | 0.771 | 0.672 | 0.765 | 0.705 | 0.854 | 0.75 | 1.01 | 0.983 | 0.975 | 1.02 | 0.927 | 0.204 | 0.228 | 0.225 | 0.211 | 0.172 |
| LXF-289 | 0.745 | 0.62 | 0.745 | 0.644 | 0.407 | 0.409 | 0.371 | 0.369 | 0.423 | 0.352 | 0.977 | 0.999 | 0.97 | 1.04 | 0.978 | 0.282 | 0.215 | 0.249 | 0.188 | 0.102 |
| NCI-H1355 | 0.708 | 0.706 | 0.762 | 0.445 | 0.326 | 0.359 | 0.308 | 0.345 | 0.355 | 0.329 | 1.28 | 1.26 | 1.13 | 1.21 | 1.11 | 0.786 | 0.64 | 0.682 | 0.497 | 0.349 |
| NCI-H596 | 1.02 | 0.955 | 1.03 | 1.07 | 0.508 | 0.941 | 1.01 | – | 2 | 0.873 | 0.838 | 0.903 | 1.22 | 1.09 | 0.899 | 0.714 | 0.566 | 0.584 | 0.582 | 0.491 |
| NCI-H1975 | 0.337 | – | 0.214 | 0.261 | 0.159 | 0.392 | 0.359 | 0.382 | 0.328 | 0.35 | 0.443 | 0.36 | 0.378 | 0.297 | 0.222 | 0.372 | 0.363 | 0.302 | 0.282 | 0.249 |
| H3255 | 1.07 | 0.674 | 0.991 | 0.621 | 0.733 | 0.838 | 0.682 | 0.977 | 0.316 | 0.358 | 0.856 | 0.787 | – | 0.741 | 0.29 | 0.361 | 0.321 | 0.412 | 0.324 | 0.322 |
| COR-L 105 | 1.04 | 0.648 | 0.801 | 0.667 | 0.598 | – | 0.731 | 0.7 | 0.537 | 0.466 | 0.759 | 0.628 | 0.699 | 0.677 | 0.309 | 0.357 | 0.335 | 0.326 | 0.235 | 0.248 |
| EBC-1 | – | – | – | – | – | – | – | – | – | – | 0.551 | 0.472 | 0.434 | 0.297 | 0.329 | – | – | – | – | – |
| COR-L23 | 0.843 | 0.519 | 0.77 | 0.579 | 0.0992 | 0.513 | 0.397 | 0.506 | 0.458 | 0.409 | 1.05 | 0.962 | 1.17 | 0.957 | 0.691 | 0.578 | 0.207 | 0.483 | 0.307 | 0.141 |
| NCI-H1793 | 0.246 | 0.246 | 0.197 | 0.176 | 0.139 | – | 0.473 | 0.482 | 0.575 | 0.583 | – | – | – | – | – | 0.349 | 0.364 | 0.38 | 0.374 | 0.347 |
| NCI-H2085 | 0.461 | 0.452 | 0.468 | 0.396 | 0.355 | 0.546 | 0.529 | 0.538 | 0.535 | 0.517 | 0.92 | 1.03 | 1.18 | 0.95 | – | 0.318 | 0.229 | 0.272 | 0.216 | 0.271 |
